Source: BigSolDB 2.1

CCCOC(=O)c1cc(O)c(O)c(O)c1
solubility (mole fraction)
Conditions	in acetone	in ethanol	in ethyl acetate	in isobutanol	in isopropanol	in methanol	in methyl acetate	in n-butanol	in n-propanol
293.15 K	0.291	0.182	0.222	0.189	0.253	0.226	0.244	0.243	0.264
298.15 K	0.311	0.201	0.24	0.209	0.273	0.242	0.264	0.259	0.283
303.15 K	0.33	0.222	0.258	0.229	0.293	0.258	0.285	0.275	0.302
308.15 K	0.35	0.244	0.276	0.25	0.314	0.276	0.306	0.293	0.321
313.15 K	0.369	0.266	0.295	0.272	0.336	0.295	0.329	0.312	0.34
318.15 K	0.387	0.288	0.314	0.295	0.359	0.316	0.351	0.333	0.36
323.15 K	0.404	0.311	0.333	0.319	0.383	0.339	0.375	0.356	0.382
328.15 K	0.412	0.323	0.343	0.331	0.396	0.351	0.39	0.368	0.394
333.15 K	0.419	0.334	0.353	0.344	0.409	0.363	0.402	0.381	0.406
